Data as given in PubChem BioAssay AID588665 (The Scripps Research Institute Molecular Screening Center, 2011).
Activity calls are given as the source filed them.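 Rule for the calls: active = EGR1 protein level in colon cancer cells shifted at least 30% from solvent-only cells, up or down; inactive = shift under 30% either way.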

Molecular target: Early growth response protein 1 (Homo sapiens) (UniProt P18146)
Experiment: EGR1 protein level change in SW620 cells, late-stage follow-up, counter-screen for KLF5 inhibitor project, cell-based, SW620 colorectal carcinoma, chemiluminescent western blot (AID 588665)
Settings: 24 h, at 10 µM, active compounds read high

Early growth response protein 1 (Homo sapiens), sequence (P18146 whole entry, looked up): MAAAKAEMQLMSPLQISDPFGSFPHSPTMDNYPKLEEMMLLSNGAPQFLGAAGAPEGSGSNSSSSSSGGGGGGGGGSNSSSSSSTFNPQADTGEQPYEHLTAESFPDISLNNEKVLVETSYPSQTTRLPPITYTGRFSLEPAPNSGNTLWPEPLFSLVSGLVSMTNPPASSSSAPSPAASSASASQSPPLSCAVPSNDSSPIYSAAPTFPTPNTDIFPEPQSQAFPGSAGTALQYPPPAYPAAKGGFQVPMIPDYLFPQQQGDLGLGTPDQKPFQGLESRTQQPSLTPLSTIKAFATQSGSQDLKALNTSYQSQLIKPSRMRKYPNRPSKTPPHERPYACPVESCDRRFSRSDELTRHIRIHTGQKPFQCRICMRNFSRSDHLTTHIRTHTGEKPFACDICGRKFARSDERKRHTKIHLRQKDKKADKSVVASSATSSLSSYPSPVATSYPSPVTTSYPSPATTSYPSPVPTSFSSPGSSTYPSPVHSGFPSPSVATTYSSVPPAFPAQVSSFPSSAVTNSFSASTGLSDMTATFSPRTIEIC

Compound | inhibition
CN(C(=O)CNC(=O)/C=C/c1cccc(Cl)c1)C1CCS(=O)(=O)C1 (stereo not drawn) | -24.8% (inactive)
CN(C(=O)CNC(=O)/C=C/c1cccc(Cl)c1)C1CCS(=O)(=O)CC1 | 37%
CN(C(=O)COC(=O)/C=C/c1cccc([N+](=O)[O-])c1)C1CCS(=O)(=O)C1 (stereo not drawn) | -14.8% (inactive)
